What was measured:
[1] = tested on: BV-2; test: Anti-inflammatory activity against LPS-induced mouse BV-2 cells assessed as increase in cell viability preincubated with compound for 1 hrs followed by LPS stimulation and measured after 24 hrs by CCK-8 method; type: functional, cell-based; conditions: dose 2.5-20 µM, time 25.0 hrs
[2] = tested on: BV-2; test: Anti-inflammatory activity in mouse BV-2 cells assessed as inhibition of LPS-induced NO production preincubated with compound for 1 hrs followed by LPS stimulation and measured after 24 hrs by Griess reagent based assay; type: functional, cell-based

Row | IC50 [2] [µM] | Compound | Activity [1]
1 | 3 | CCCCCC[C@H]1O[C@]23O[C@H]1CC[C@@H]2C(=O)CC[C@H]3O | Dose-Dependent Effect
2 | 8.9 | CCCCCC[C@@H]1O[C@]23O[C@H]1CC=C2C(=O)CC[C@H]3O | Dose-Dependent Effect
3 | 14 | CCCCCC[C@@H]1O[C@@]23CC[C@@H](O)C(=O)[C@H]2CC[C@@H]1O3 | Dose-Dependent Effect

Reference: ChEMBL document CHEMBL5321265, “Polyketides with Anti-Inflammatory Activity from Trichoderma koningiopsis, a Rhizosphere Fungus from the Medicinal Plant Polygonum paleaceum” (J Nat Prod, 2023)
